Results as given in ChEMBL document CHEMBL1137635, “Multiple antibiotics exert delayed effects against the Plasmodium falciparum apicoplast” (Antimicrob Agents Chemother, 2007).
Calls of active or inactive are those of the source. The rule behind the calls is not given here.

How the values were obtained:
[1] = system: Plasmodium falciparum; test: Antimalarial activity as 3rd generation parasitaemia against chloroquine-sensitive Plasmodium falciparum 3D7 infected human erythrocytes after 96hrs at 100 nM dosed 0-36 hrs post infection; type: functional
[2] = system: Plasmodium falciparum; test: Antimalarial activity as 3rd generation parasitaemia against chloroquine-sensitive Plasmodium falciparum 3D7 infected human erythrocytes after 96hrs at 100 nM dosed 0-24 hrs post infection; type: functional
[3] = Tmax in human at 1000 mg, po once daily for 3 days; type: ADME, organism-based; details: in vivo
[4] = system: Plasmodium falciparum; test: Antimalarial activity as 3rd generation parasitaemia against chloroquine-sensitive Plasmodium falciparum 3D7 infected human erythrocytes after 96 hrs at 100 nM dosed 0-48 hrs post infection; type: functional
[5] = system: Plasmodium falciparum; test: Antimalarial activity as 3rd generation ring-stage chloroquine-sensitive Plasmodium falciparum 3D7 after 48 hrs dose then 48 hrs drug-free; type: functional, organism-based; details: 3D7, 48 h
[6] = system: Plasmodium falciparum; test: Antimalarial activity as 3rd generation parasitaemia against chloroquine-sensitive Plasmodium falciparum 3D7 infected human erythrocytes after 96 hrs at 100 nM dosed 0-12 hrs post infection; type: functional
[7] = system: Plasmodium falciparum; test: Antimalarial activity as parasitaemia against chloroquine-sensitive ACP1-GFP-labeled Plasmodium falciparum 3D7 trophozoite infected human erythrocytes at 2xIC50 dosed 96 hrs post infection; type: functional
[8] = system: Plasmodium falciparum; test: Antimalarial activity as 3rd generation parasitaemia against chloroquine-sensitive Plasmodium falciparum 3D7 infected human erythrocytes assessed after 96hrs at 100 nM dosed 12-36 hrs post infection; type: functional
[9] = Half life in human at 1000 mg, po once daily for 3 days; type: ADME, organism-based; details: in vivo
[10] = Cmax in human at 1000 mg, po once daily for 3 days; type: ADME, organism-based; set-up: dose 1000 mg, route oral; details: in vivo
[11] = system: Plasmodium falciparum; test: Antimalarial activity as 2nd generation ring-stage chloroquine-resistant Plasmodium falciparum W2 after 48 hrs by flow cytometry; type: functional, organism-based; details: W2, 48 h
[12] = system: Plasmodium falciparum; test: Antimalarial activity as 3rd generation parasitaemia against chloroquine-sensitive Plasmodium falciparum 3D7 infected human erythrocytes after 96hrs at 100 nM dosed 12-24 hrs post infection; type: functional
[13] = system: Plasmodium falciparum; test: Antimalarial activity as 3rd generation parasitaemia against chloroquine-sensitive Plasmodium falciparum 3D7 infected human erythrocytes after 96hrs at 100 nM dosed 12-48 hrs post infection; type: functional
[14] = system: Plasmodium falciparum; test: Antimalarial activity as segregation of apicoplast in chloroquine-sensitive Plasmodium falciparum 3D7 progeny infected human erythrocytes at 100 nM dosed 96 hrs post infection; type: functional, organism-based
[15] = system: Plasmodium falciparum; test: Antimalarial activity as segregation of apicoplast in chloroquine-sensitive ACP1-GFP-labeled Plasmodium falciparum 3D7 schizont infected human erythrocytes at 100 nM dosed 96 hrs post infection; type: functional, organism-based
[16] = system: Plasmodium falciparum; test: Antimalarial activity as 3rd generation parasitaemia against chloroquine-sensitive Plasmodium falciparum 3D7 infected human erythrocytes after 96hrs at 100 nM dosed 24-48 hrs post infection; type: functional
[17] = system: Plasmodium falciparum; test: Antimalarial activity as 2nd generation ring-stage chloroquine-sensitive Plasmodium falciparum 3D7 after 48 hrs by flow cytometry; type: functional, organism-based; details: 3D7, 48 h
[18] = system: Plasmodium falciparum; test: Antimalarial activity as 3rd generation parasitaemia against chloroquine-sensitive Plasmodium falciparum 3D7 infected human erythrocytes after 96hrs at 100 nM dosed 36-48 hrs post infection; type: functional
[19] = system: Plasmodium falciparum; test: Antimalarial activity as arrested schizont maturation in chloroquine-sensitive Plasmodium falciparum 3D7 infected human erythrocytes after 48 hrs at 100 nM dosed 96 hrs post infection; type: functional, organism-based
[20] = system: Plasmodium falciparum; test: Antimalarial activity as 3rd generation parasitaemia against chloroquine-sensitive Plasmodium falciparum 3D7 infected human erythrocytes after 96hrs at 100 nM dosed 24-36 hrs post infection; type: functional
[21] = system: Plasmodium falciparum; test: Antimalarial activity as 3rd generation ring-stage chloroquine-resistant Plasmodium falciparum W2 after 48 hrs dose then 48 hrs drug-free; type: functional, organism-based; details: W2, 48 h, read-out: IC50
[22] = system: Plasmodium falciparum; test: Antimalarial activity as abnormal apicoplast morphology in chloroquine-sensitive ACP1-GFP-labeled Plasmodium falciparum 3D7 trophozoite infected human erythrocytes at 2xIC50 dosed 96 hrs post infection; type: functional
[23] = system: Plasmodium falciparum; test: Antimalarial activity as 3rd generation parasitaemia against chloroquine-sensitive Plasmodium falciparum 3D7 infected human erythrocytes after 96 hr at 25 nM dosed 24-48 hrs post infection; type: functional
[24] = system: Plasmodium falciparum; test: Antimalarial activity as segregation of apicoplast in chloroquine-sensitive ACP1-GFP-labeled Plasmodium falciparum 3D7 schizont infected human erythrocytes at 25 nM dosed 96 hrs post infection; type: functional, organism-based
[25] = system: Plasmodium falciparum; test: Antimalarial activity as 3rd generation parasitaemia against chloroquine-sensitive Plasmodium falciparum 3D7 infected human erythrocytes after 96hrs at 25 nM dosed 0-48 hrs post infection; type: functional
[26] = system: Plasmodium falciparum; test: Antimalarial activity as 3rd generation parasitaemia against chloroquine-sensitive Plasmodium falciparum 3D7 infected human erythrocytes after 96hrs at 25 nM dosed 0-12 hrs post infection; type: functional
[27] = system: Plasmodium falciparum; test: Antimalarial activity as 3rd generation parasitaemia against chloroquine-sensitive Plasmodium falciparum 3D7 infected human erythrocytes after 96hrs at 25 nM dosed 12-24 hrs post infection; type: functional
[28] = system: Plasmodium falciparum; test: Antimalarial activity as3rd generation parasitaemia against chloroquine-sensitive Plasmodium falciparum 3D7 infected human erythrocytes after 96 hrs at 25 nM dosed 12-36 hrs post infection; type: functional
[29] = system: Plasmodium falciparum; test: Antimalarial activity as 3rd generation parasitaemia against chloroquine-sensitive Plasmodium falciparum 3D7 infected human erythrocytes after 96hrs at 25 nM dosed 0-36 hrs post infection; type: functional
[30] = system: Plasmodium falciparum; test: Antimalarial activity as abnormal apicoplast morphology in chloroquine-sensitive ACP1-GFP-labeled Plasmodium falciparum 3D7 after 48 hrs at 2xIC50 dosed 96 hrs post infection; type: functional, organism-based
[31] = system: Plasmodium falciparum; test: Antimalarial activity as segregation of apicoplasts against chloroquine-sensitive Plasmodium falciparum 3D7 infected human erythrocytes at 25 nM 96 hrs post infection; type: functional, organism-based
[32] = system: Plasmodium falciparum; test: Antimalarial activity as 3rd generation parasitaemia against chloroquine-sensitive Plasmodium falciparum 3D7 infected human erythrocytes after 96hrs at 25 nM dosed 12-48 hrs post infection; type: functional
[33] = system: Plasmodium falciparum; test: Antimalarial activity as arrested schizont maturation in chloroquine-sensitive Plasmodium falciparum 3D7 infected human erythrocytes after 48 hrs at 25 nM dosed 96 hrs post infection; type: functional, organism-based
[34] = system: Plasmodium falciparum; test: Antimalarial activity as 3rd generation parasitaemia after 96 hrs against chloroquine-sensitive Plasmodium falciparum 3D7 infected human erythrocytes at 25 nM 36-48 hrs post invasion; type: functional
[35] = system: Plasmodium falciparum; test: Antimalarial activity as 3rd generation parasitaemia against chloroquine-sensitive Plasmodium falciparum 3D7 infected human erythrocytes after 96hrs at 25 nM dosed 0-24 hrs post infection; type: functional
[36] = system: Plasmodium falciparum; test: Antimalarial activity in chloroquine-sensitive ACP1-GFP-labeled Plasmodium falciparum 3D7 after 48 hrs at 2xIC50 dosed 96 hrs post infection; type: functional, organism-based
[37] = system: Plasmodium falciparum; test: Antimalarial activity as 3rd generation parasitaemia against chloroquine-sensitive Plasmodium falciparum 3D7 infected human erythrocytes after 96hrs at 25 nM dosed 24-36 hrs post infection; type: functional

Structure (SMILES): CC[C@H]1OC(=O)[C@H](C)[C@@H](O[C@H]2C[C@@](C)(OC)[C@@H](O)[C@H](C)O2)[C@H](C)[C@@H](O[C@@H]2O[C@H](C)C[C@H](N(C)C)[C@H]2O)[C@](C)(O)C[C@@H](C)CN(C)[C@H](C)[C@@H](O)[C@]1(C)O [AZITHROMYCIN]
- Activity [1]: 30%
- Activity [2]: 61%
- Tmax [3]: 2.4 h
- Activity [4]: 17%
- IC50 [5]: 52.7 nM
- Activity [6]: 91%
- Activity [7]: 105%
- Activity [8]: 28%
- half-life [9]: 3.08 days
- Cmax [10]: 1100 nM
- IC50 [11]: 1460 nM
- Activity [12]: 59%
- Activity [13]: 18%
- Activity [14]: Active
- Activity [15]: Active
- Activity [16]: 68%
- IC50 [17]: 8.67 µM
- Activity [18]: 113%
- Activity [19]: inactive
- Activity [20]: 79%
- IC50 [21]: 31 nM
- Activity [22]: 83.4%

Structure (SMILES): CCC[C@@H]1C[C@@H](C(=O)N[C@@H]([C@H]2O[C@H](SC)[C@H](O)[C@@H](O)[C@H]2O)[C@H](C)Cl)N(C)C1 [CLINDAMYCIN]
- Activity [23]: 78%
- Activity [24]: Active
- Activity [25]: 11%
- Activity [26]: 87%
- Activity [27]: 41%
- Activity [28]: 15%
- Activity [29]: 21%
- IC50 [5]: 8.81 nM
- Activity [30]: Active
- Activity [7]: 99.3%
- Activity [31]: Active
- IC50 [11]: > 100000 nM
- Activity [32]: 19%
- Activity [33]: inactive
- Activity [34]: 63%
- Activity [35]: 49%
- IC50 [17]: > 100 µM
- Activity [36]: Active
- Activity [37]: 52%
- IC50 [21]: 3.12 nM
- Activity [22]: 85.2%
